Experimental data from patent US20250197428A1, “INHIBITORS OF KIF18A AND USES THEREOF” (ACCENT THERAPEUTICS, INC., priority 2022, published 2025).
Like-named read-outs stand apart in the source and are kept apart here.

What was measured:
OVCAR-3 xenografts = experiment: 28 day in vivo efficacy in OVCAR-3 xenografts; set-up: species or system female NOD SCID mice; settings: day 28, 30 mg/kg once daily, oral
Protocol: Experiments were performed in female NOD SCID mice (GenPharmatech Co.). Animals were allowed to acclimate for 7 days before the study. The general health of the animals were evaluated by a veterinarian, and complete health checks were performed prior to the study. General procedures for animal care and housing were in accordance with the standard, Commission on Life Sciences, National Research Council, Standard Operating Procedures (SOPs) of Pharmaron, Inc. The mice were kept in laminar flow rooms at constant temperature and humidity with 3-5 mice in each cage. Animals were housed in polycarbonate cages which had dimensions of 300×180×150 mm^3 and in an environmentally monitored, well-ventilated room maintained at a temperature of 23±3° C. and a relative humidity of 40%-70%. Fluorescent lighting provided illumination approximately 12 hours per day. Animals had free access to irradiation sterilized dry granule food during the entire study period except for time periods specified by the protocol, as well as sterile drinking water in a bottle that was available ad libitum during the quarantine and study periods.
The OVCAR-3 (ATCC) tumor cell lines were maintained in vitro as a monolayer in RPMI 1640 medium supplemented with 20% heat inactivated FBS, at 37° C. in an atmosphere of 5% CO2 in air. The tumor cells were sub-cultured, not exceeding 4-5 passages, and cells growing in an exponential growth phase were harvested and counted for tumor inoculation. Each mouse was inoculated subcutaneously on the right flank with OVCAR-3 tumor cells (2×10^7) in 0.2 mL of RPMI-1640 with Matrigel (1:1) for model development.
Treatment was started when the mean tumor size reached approximately 150-200 mm^3, at which time the mice were randomized into treatment groups such that the average starting tumor size is similar for each treatment group. Animals were then treated with vehicle or indicated mg/kg (10-100) of compound at a given frequency (e.g., BID, QD, 4 days on treatment followed by 3 days off treatment) by oral gavage at a final dosing volume of 10 mL/kg.
The measurement of tumor size was conducted with a caliper and recorded twice per […] week. The tumor volume (TV) (mm^3) was estimated using the formula: TV=a×b^2/2, where “a” and “b” are long and short diameters of a tumor, respectively.
The TVs were used for calculation of the tumor growth inhibition and tumor growth delay. For the tumor growth inhibition (TGI), the value using the formula: […]
The “TVfinal” and “TVinitial” are the mean tumor volumes on the final day and initial day, respectively.
All statistical tests was conducted on GraphPad, and the level of significance was set at 5% or P<0.05. The group means and standard deviations were calculated for all measurement parameters. Two-way RM ANOVA followed by Tukeys post hoc comparisons of the means was applied among groups.
Additionally, after compound treatment, the animals were observed an additional 28 days without compound treatment.
The initial treatment period with Example 1 was 28 days, after which overall efficacy and tolerability were evaluated based on tumor volume and body weight changes observed during the treatment period (FIG. 2a and FIG. 2b).
The initial treatment period with Example 1 was 28 days, after which overall efficacy and tolerability were evaluated based on tumor volume and body weight changes observed during the treatment period (FIG. 3a and FIG. 3b).

[1] = Bone marrow concentration in 28 day OVCAR-3 xenograft study; type: in vivo, mice; settings: NOD SCID, mouse, 28 day study; for concentration at 6 h: read-out: Bone marrow concentration at 6 h post-last dose; for concentration at 24 h: read-out: Bone marrow concentration at 24 h post-last dose
Protocol: On Day 28, tissues were collected from animals. About 30-60 μL of whole blood was collected into tubes containing EDTA anticoagulant, and plasma was harvested by centrifugation at 4,000 g×5 min and stored at −80° C. until analysis. Plasma analysis followed the same protocol as for the Day 1 plasma analysis. Additionally, the femurs of the mice were cut and put in pre-weighed tubes. The bone marrow was harvested by centriguation at 8,000 g×15 min. Then, the total weight of both the bone marrow and the tube was recorded. The bone marrow was stored at −80° C. until analysis.
Samples were collected from animals 6 h after the last dose of compound and at 24 h after the last dose of compound.

Cc1cc(NC(=O)c2ccc(NS(=O)(=O)CCO)cc2N2CC[C@@]3(C(F)F)C[C@H]3C2)nc(N2CCC(F)(F)CC2)n1 (single isomer, unassigned) [Example 29b]
% T/C (OVCAR-3 xenografts): 1%
% TGI (OVCAR-3 xenografts): 99%
concentration at 6 h ([1]; 10 mg/kg QD oral): 2800 ng/g
concentration at 24 h ([1]; 10 mg/kg QD oral): 210 ng/g
concentration at 6 h ([1]; 30 mg/kg QD oral): 10500 ng/g
concentration at 24 h ([1]; 30 mg/kg QD oral): 900 ng/g
